In US20250049678A1, “COMPOUNDS ATTACHABLE TO SKIN” (Inkbox Ink Incorporated, priority 2021, published 2025):

What was measured:
[1] = UV/visible absorbance after reacting the compound with lysine to mimic skin binding; format: physicochemical; conditions: for visible color after reaction with lysine / UV-light absorption after reaction with lysine: lysine conjugate, mimic of skin binding; for visible color after reaction with lysine: absorbance at wavelengths above 410 nm; for UV-light absorption after reaction with lysine: absorbance at wavelengths below 410 nm; for shift in UV absorbance peak on reaction with lysine: compound versus its lysine conjugate; for absorbance properties / color of the dye compound after binding to lysine: versus the dye compound prior to conjugation with lysine, in solution, FIG. 3D; for UV blocking activity: FIG. 6, salicylic acid as such, attached to hydrogenated genipin anchor, and bound to skin mimic
Source text: A hydrogenated genipin derivative (compound 1) was conjugated with lysine to obtain compound 1-lysine conjugate:
The azo-dye compound of example 5 was conjugated with lysine to obtain a conjugate:
The compound of Example 7 was conjugated with lysine to obtain the lysine conjugate:
The OL compound of example 8 was conjugated with lysine to obtain OL-lysine conjugate: […]

[2] = test system: skin substrate (a porcine skin explant); assay: Sunscreen application on skin substrate: UV-light absorption and retention after wiping, washing and scrubbing
Source text: When referring to protective groups hydrolysable under physiological conditions after application of the topical composition onto the skin here and elswhere in the dislcosure: Such groups are readily known to the skilled person and include, in particular acyl moieties such as optionally substituted acyl moieties comprising 1 to 30, more specifically 1 to 16, and in particular 1 to 12, carbon atoms; 0 to 12, more specifically 0 to 8, and in particular 0 to 6 oxygen atoms; 0 to 8, more specifically 0 to 6, and in particular 0 to 4 nitrogen atoms; 0 to 6, more specifically 0 to 4, and in particular 0 to 3 sulfur atoms; and 0 to 10, more specifically 0 to 8, and in particular 0 to 6 halogen atoms. Specific examples include C1-C18 acyl moieties, more specifically C1-C12 acyl moieties and in particular […]. When referring in this context to “physiological conditions” it should be understood that this in particular refers to the pH conditions encountered at the locus where the compound of formula (I) is supposed to bind to proteins in e.g. the stratum corneum and/or the epidermis of the (mammalian, in particular human) subject to be treated. […]

| Compound | visible color after reaction with lysine [1] | UV-light absorption after reaction with lysine [1] | shift in UV absorbance peak on reaction with lysine [1] | other results |
| --- | --- | --- | --- | --- |
| C=CC1=CN(CCCCC(N)C(=O)O)C=C(C(=O)OC)C1CC(=O)OCCc1ccc(O)c(O)c1 (stereo not drawn) | no visible color | strong UV-light absorption | – | – |
| COC(=O)C1=COC(O)C2C(COC(=O)c3ccc(/N=N/c4ccccc4)cc3)CCC12 (stereo not drawn) [Example 5, methyl (E)-1-hydroxy-7-(((4-(phenyldiazenyl)benzoyl)oxy)methyl)-1,4a,5,6,7,7a-hexahydrocyclopenta[c]pyran-4-carboxylate] | – | – | – | absorbance properties / color of the dye compound after binding to lysine [1]: does not alter absorbance properties; absorbance properties / color of the dye compound after binding to lysine ([1]; listed as azo-dye-anchor molecule): retains its original color |
| C/C=C1/[C@H](O)OC=C(C(=O)OC)[C@H]1CC(=O)OCCc1ccc(O)c(O)c1 [OL, methyl (4s,5e,6r)-4-[2-[2-(3,4-dihydroxyphenyl)ethoxy]-2-oxoethyl]-5-ethylidene-6-hydroxy-4h-pyran-3-carboxylate] | almost no visible color | – | small shift in UV absorbance peak | – |
| COC(=O)C1=CN(CCCCC(N)C(=O)O)C=C2C(C)CCC12 (stereo not drawn) [compound 1-lysine conjugate] | no visible color | strong UV-light absorption | – | – |
| CCCCC(CC)COC(=O)c1ccccc1O (stereo not drawn) [octisalate] | – | – | – | UV-light absorption on the skin substrate and removability after wiping ([2]; 50 mM solutions, 2 and 4 hours after application, wiped with a wet tissue at 4 hours, UV light 254 nm, FIG. 4): easily removable from the skin; UV-light absorption / presence on the skin substrate after washing and scrubbing ([2]; 24 and 26 hours total contact time, submerged in water for 2 hours and scrubbed vigorously, UV camera with UV-B filter, FIG. 5): no longer present |
| O=C(O)c1ccccc1O [salicylic acid, reference compound] | – | – | – | UV blocking activity [1]: UV blocking agent |

Further lines, with some results ahead:

| visible color after reaction with lysine [1] | UV-light absorption after reaction with lysine [1] | shift in UV absorbance peak on reaction with lysine [1] | Compound | other results |
| --- | --- | --- | --- | --- |
| no visible color | strong UV-light absorption | – | COC(=O)C1=CN(CCCCC(N)C(=O)O)C=C2C(COC(=O)c3ccccc3O)CCC12 (stereo not drawn) | – |
| no visible color | strong UV-absorption | small shift | COC(=O)C1=COC(O)C2C(C)CCC12 (stereo not drawn) [Compound 1, methyl 1-hydroxy-7-methyl-1,4a,5,6,7,7a-hexahydrcyclopenta[c]pyran-4-carboxylate] | – |
| no visible color | strong UV-light absorption | – | COC(=O)C1=COC(O)C2C(CO)CCC12 (stereo not drawn) [Compound 2, methyl 1-hydroxy-7-(hydroxymethyl)-1,4a,5,6,7,7a-hexahydrocyclopenta[c]pyran-4-carboxylate] | – |
| no visible color is produced | – | small shift in UV absorbance peak | COC(=O)C1=COC(O)C2C(COC(=O)c3ccccc3O)CCC12 (stereo not drawn) [Example 7, methyl 1-hydroxy-7-(((2-hydroxybenzoyl)oxy)methyl)-1,4a,5,6,7,7a-hexahydrocyclopenta[c]pyran-4-carboxylate] | UV blocking activity [1]: retained |
